Results reported in patent US20210008161A1, “METHODS AND COMPOSITIONS FOR IMPROVED HOMOLOGY DIRECTED REPAIR” (CRISPR THERAPEUTICS AG, priority 2019, published 2021).

Columns and labels:
[1] = test system: human LT-HSPCs administered to cKit mice; assay: Erythroid cell enucleation in mouse bone marrow; type: in vivo; conditions: bone marrow 16 weeks; vs cells treated with RNP-only or AAV-only; FIG. 28
Protocol: The functionality of the hematopoietic compartment in recipient mice was evaluated by measuring erythroid cell enucleation in bone marrow collected at 16 weeks post-engraftment. Mammalian erythrocytes extrude their nucleus prior to entering circulation. Human CD34-expressing LT-HSPCs are expected to differentiate into erythrocytes following engraftment, however the efficiency of enucleation can be low. Assessment of erythroid cell enucleation provides a measure of the ability of edited CD34 expressing cells to differentiate into erythroid cells compared to the unedited controls (i.e., ability to differentiate into functional cell types). Percent enucleation was compared for LT-HSPCs gene edited with Cas9/gRNA RNP and AAV given pre-EP or post-EP. […] Additionally, levels of enucleation were compared for LT-HSPCs gene edited with RNP+AAV in the presence of i53 or Nu7441.

patient-derived PBMCs = assay: Hemoglobin expression by HPLC in edited patient-derived PBMCs; type: cell-based, human; conditions: FIG. 36
Protocol: (§1) Briefly, on day 18 post-editing, 1×10^6 cells were harvested, centrifuged, and washed with PBS. The cells were prepared for HPLC analysis. Hemoglobin variants were quantified in cell samples using reverse-phase HPLC chromatography and gradient elution. […] Thus, high levels of HDR achieved with i53 contribute to normalization of hemoglobin expression products.
Hemoglobin expression was measured by HPLC analysis for edited PBMCs as described above.

CD34-expressing LT-HSPCs = assay: Indel formation at HBB locus by TIDE analysis; type: cell-based, human
Protocol: Editing efficiency at the HBB locus was evaluated by measuring indel formation by TIDE analysis. […] This group had 1.7-fold reduction in INDEL frequency relative to cells treated with RNP+AAV,

[2] = test system: CD34-expressing LT-HSPCs derived from human patients with sickle cell disease; assay: Erythrocyte functionality: cell-surface markers and enucleation by flow cytometry; type: cell-based; conditions: day 18 post editing
Protocol: The ability of edited cells to differentiate to functional erythrocytes was assessed by determining expression of erythrocyte-associated cell surface markers and enucleation using flow cytometry on day 18 post editing.
Briefly, 4×10^5 cells were obtained, and half were stained for erythrocyte cell-surface markers and half were used for detection of enucleation. For staining cell-surface markers, the cells were incubated in PBS containing 1% human serum albumin (PBS-A) and an antibody cocktail of anti-CD233 (BRIC6-Band3)-FITC, anti-CD71-PE, anti-CD235a(GlyA)-PE/Cy7, and anti-CD49d (a4)-VioBlue. For detection of enucleation, 2 drops of NucRed nuclear staining reagent was added to 1 mL PBS-A, and 100 μL was added to plated cells. Following incubation, both cell samples were labeled with Sytox Blue solution (1:1000 dilution in PBS-A) for live/dead analysis. Samples were then assessed by flow cytometry.

[3] = test system: CD34-expressing LT-HSPCs derived from human patients with sickle cell disease; assay: Hemoglobin expression (HbF, HbA, HbS) by HPLC; type: cell-based
Protocol: Hemoglobin expressed by edited cells that were differentiated to erythrocytes was assessed. Hemoglobin A (HbA) is composed of 2 alpha-globin and 2 beta-globin units and is the dominant hemoglobin in adult humans. In human carriers of the HBB E6V mutation, a high proportion of total hemoglobin is hemoglobin S (HbS), which is composed of 2 alpha-globin units and 2 beta-globin units with E6V.
as §1

[4] = test system: wild-type CD34-expressing LT-HSPCs; assay: HDR and INDEL frequency at HBB locus with AAV.323 donor by NGS; type: cell-based, human
Text: The AAV-encoded homology donor used for correction is referred to as “AAV.323” and is identified by sequence in Table 8.

[5] = test system: human LT-HSPCs administered to cKit mice; assay: Indel formation at HBB locus in mouse bone marrow by TIDE analysis; type: in vivo; conditions: 16 weeks post engraftment
Protocol: (§2) NHEJ editing of the HBB locus was also evaluated in mouse bone marrow collected at 16 weeks post engraftment. Indel formation at the site of Cas9/gRNA cutting was evaluated by TIDE analysis in bone marrow samples and compared to indel formation of LT-HSPCs prior to administration.
as §2, with “administration. Regardless of the method used to edit the LT-HSPCs, indel formation was similar at 16 weeks post-engraftment to the level present prior to administration (FIG. 27).” for “administration.”

[6] = test system: CD34-expressing LT-HSPCs derived from human patients with sickle cell disease; assay: SCD gene correction (E6V to E6) by HDR and INDEL frequency by NGS in patient-derived cells
Protocol: The effect of i53 on HDR efficiency was evaluated in cells derived from patients with a sickle cell mutation in the HBB gene. Specifically, CD34-expressing LT-HSPCs derived from human patients with sickle cell disease were edited with SpCas9, R02 guide, and AAV.323 encoding a correction to the E6V mutation in the HBB gene.
Briefly, CD34-expressing LT-HSPCs were derived from plerixafor+GCSF-dual mobilized peripheral blood obtained from a human donor with sickle cell disease. The cells were seeded in Phase I media at a cell density of 2×10^5 cells/mL. Cells were cultured at 37° C. under normoxic conditions (i.e., oxygen 20%).
Editing of cells was performed following two days of in vitro culture. Briefly, 5×10^5 cells were electroporated with RNP containing 20 μg SpCas9 and 20 μg R02 sgRNA, AAV.323 at a dose of 10,000 MOI, and 1 μg mRNA encoding i53. The cells were incubated with AAV.323 for 1 hour prior to electroporation. The cells were edited by electroporation with R02+AAV.323+i53 mRNA and compared to control cells edited with R02 only, R02+AAV.323, or cells exposed to electroporation without RNP or AAV editing components (mock EP).
The efficiency of gene correction by HDR repair at the HBB gene locus was evaluated by NGS assay as described in Example 3. Frequency of INDELs at the R02 cut site was evaluated by NGS analysis. […]

[7] = compared to mock EP control cells
[8] = day 18 post-editing, compared to mock EP control cells, FIG. 34A

Compound	levels of erythroid cell enucleation [1]	expression of HbA (patient-derived PBMCs; [7])	expression of HbS (patient-derived PBMCs; [7])	ratio of HbS to HbA, PBMCs vs CD34-expressing LT-HSPCs (patient-derived PBMCs; edited in the presence of i53)	risk of indel formation within the target gene locus (CD34-expressing LT-HSPCs; CD34+ HSCs contacted with 53BP1 polypeptide inhibitor, summary statement)	level of indel formation (CD34-expressing LT-HSPCs; RNP+AAV in the presence of i53, FIG. 11)	cell population having enucleation ([2]; comparable to mock EP control cells)	cell population CD71−GlyA+ erythrocytes ([2]; similar to mock EP control cells)	HbA levels [3, 8]	HbS levels [3, 8]	decrease in HbS levels ([3]; relative to mock EP control cells, FIG. 34B)	fold increase in HDR efficiency for incorporation of the AAV.323 gene-edit ([4]; 1 μg i53 mRNA, day 2 post-editing, compared to R02+AAV.323 only, FIG. 30A)	frequency of INDELs at the R02 cut site ([4]; i53 vs R02+AAV.323 only, combination vs i53 only, FIG. 30B)	level of indel formation in bone marrow ([5]; Example 5, FIG. 20)	level of indel formation in bone marrow ([5]; Example 7, FIG. 27)	incorporation of the E6V→E6 gene correction ([6]; R02 RNP + AAV.323 + 1 μg i53 mRNA, FIG. 32A, 34B)	fold lower frequency of INDELs at the R02 cut site ([6]; compared to cells edited with RNP+AAV.323 alone, FIG. 32B)
O=c1cc(N2CCOCC2)oc2c(-c3cccc4c3sc3ccccc34)cccc12 [Nu7441]	similar	–	–	–	–	–	–	–	–	–	–	–	–	–	–	–	–
i53: polypeptide inhibitor of 53BP1 (SEQ ID NO: 70), introduced as an mRNA-encoded protein (ORF SEQ ID NO: 69)	similar	increased	significant reduction	comparable	less than 30%	lowest	> 30%	> 30%	increased	dramatically reduced	90%	approximately 1.5 fold	decreased	lowest	lowest	66%	1.9 fold
